Assays:
[1] = molecular target: Protein kinase C beta type (Rattus norvegicus, UniProt P68403); test: PKC assay
Protocol: The activity of PKC, activated by phosphatidylerine and Ca2+, is measured by its ability to transfer phosphate from [gamma-32P]ATP to lysine-rich histone.

[2] = molecular target: cAMP-dependent protein kinase catalytic subunit alpha (Bos taurus, UniProt P00517); test: PKA assay
Protocol: The activity of PKA, activated by cAMP, is measured by its ability to transfer phosphate from [gamma-32P]ATP to histone.

Protein kinase C beta type, sequence (P68403 whole entry): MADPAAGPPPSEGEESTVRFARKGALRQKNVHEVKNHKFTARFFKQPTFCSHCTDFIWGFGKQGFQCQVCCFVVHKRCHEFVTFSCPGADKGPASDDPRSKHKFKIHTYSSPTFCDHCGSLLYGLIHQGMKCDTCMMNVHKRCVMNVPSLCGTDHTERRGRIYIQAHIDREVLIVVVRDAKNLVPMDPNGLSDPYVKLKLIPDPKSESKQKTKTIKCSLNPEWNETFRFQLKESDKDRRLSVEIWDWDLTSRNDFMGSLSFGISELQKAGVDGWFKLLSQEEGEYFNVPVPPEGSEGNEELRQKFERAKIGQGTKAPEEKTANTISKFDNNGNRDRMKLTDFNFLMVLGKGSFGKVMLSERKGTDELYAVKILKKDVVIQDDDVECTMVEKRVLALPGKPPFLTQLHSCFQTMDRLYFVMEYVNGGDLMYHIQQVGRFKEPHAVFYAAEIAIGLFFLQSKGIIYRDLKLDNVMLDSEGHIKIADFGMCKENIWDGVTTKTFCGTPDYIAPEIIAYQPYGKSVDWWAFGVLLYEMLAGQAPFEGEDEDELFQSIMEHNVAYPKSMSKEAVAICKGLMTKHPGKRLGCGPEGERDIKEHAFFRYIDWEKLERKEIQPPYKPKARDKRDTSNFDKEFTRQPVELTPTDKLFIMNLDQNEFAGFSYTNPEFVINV

CN1C(=O)C(c2c[nH]c3ccccc23)=C(c2c[nH]c3ccccc23)C1=O
IC50 ([1]; pH 7.5, 30 °C): > 100 µM

Cn1cc(C2=C(c3cn(C)c4ccc(C(=O)O)cc34)C(=O)NC2=O)c2ccccc21 [1-methyl-3-[4-(1-methyl-1H-indol-3-yl)-2,5-dioxo-2,5-dihydro-1H-pyrrol-3-yl]-1H-indole-5-carboxylic acid]
IC50 [1]: > 50 µM

O=C1OC(=O)C(c2c[nH]c3ccccc23)=C1c1c[nH]c2ccccc12 [3,4-bis(1H-indol-3-yl)-2,5-dihydrofuran-2,5-dione]
IC50 ([1]; pH 7.5, 30 °C): > 100 µM

Cn1cc(C2=C(c3csc4ccccc34)C(=O)NC2=O)c2ccccc21 [3-(1-benzothiophen-3-yl)-4-(1-methyl-1H-indol-3-yl)-2,5-dihydro-1H-pyrrole-2,5-dione]
IC50 [2]: > 100 µM

Cn1cc(C2=C(c3cn(Cc4ccccc4)c4ccccc34)C(=O)NC2=O)c2ccccc21 [3-(1-benzyl-1H-indol-3-yl)-4-(1-methyl-1H-indol-3-yl)-2,5-dihydro-1H-pyrrole-2,5-dione]
IC50 ([2]; pH 8.5, 37 °C): > 100 µM

Cn1cc(C2=C(c3cc4ccccc4n3C)C(=O)NC2=O)c2ccccc21 [3-(1-methyl-1H-indol-2-yl)-4-(1-methyl-1H-indol-3-yl)-2,5-dihydro-1H-pyrrole-2,5-dione]
IC50 ([1]; pH 7.5, 30 °C): > 100 µM

Cn1cc(C2=C(c3cn(C)c4cccc([N+](=O)[O-])c34)C(=O)NC2=O)c2ccccc21 [3-(1-methyl-1H-indol-3-yl)-4-(1-methyl-4-nitro-1H-indol-3-yl)-2,5-dihydro-1H-pyrrole-2,5-dione]
IC50 [2]: > 100 µM

Cc1cccc(C2=C(c3cn(C)c4ccccc34)C(=O)NC2=O)c1 [3-(1-methyl-1H-indol-3-yl)-4-(3-methylphenyl)-2,5-dihydro-1H-pyrrole-2,5-dione]
IC50 [2]: > 100 µM

Cn1cc(C2=C(c3cccc(Oc4ccccc4)c3)C(=O)NC2=O)c2ccccc21 [3-(1-methyl-1H-indol-3-yl)-4-(3-phenoxyphenyl)-2,5-dihydro-1H-pyrrole-2,5-dione]
IC50 [1]: > 100 µM

CSc1ccc(C2=C(c3cn(C)c4ccccc34)C(=O)NC2=O)cc1 [3-(1-methyl-1H-indol-3-yl)-4-[4-(methylsulfanyl)phenyl]-2,5-dihydro-1H-pyrrole-2,5-dione]
IC50 [1]: > 50 µM

Cn1cc(C2=C(c3ccccc3)C(=O)NC2=O)c2ccccc21 [3-(1-methyl-1H-indol-3-yl)-4-phenyl-2,5-dihydro-1H-pyrrole-2,5-dione]
IC50 [2]: > 100 µM

Cn1cc(C2=C(c3cc(Cl)cc(Cl)c3)C(=O)NC2=O)c2ccccc21 [3-(3,5-dichlorophenyl)-4-(1-methyl-1H-indol-3-yl)-2,5-dihydro-1H-pyrrole-2,5-dione]
IC50 [2]: > 100 µM

Cn1cc(C2=C(c3cccc(N)c3)C(=O)NC2=O)c2ccccc21 [3-(3-aminophenyl)-4-(1-methyl-1H-indol-3-yl)-2,5-dihydro-1H-pyrrole-2,5-dione]
IC50 [2]: > 100 µM

Cn1cc(C2=C(c3cccc(Cl)c3)C(=O)NC2=O)c2ccccc21 [3-(3-chlorophenyl)-4-(1-methyl-1H-indol-3-yl)-2,5-dihydro-1H-pyrrole-2,5-dione]
IC50 [2]: > 100 µM

Cn1cc(C2=C(c3ccc(Cl)cc3)C(=O)NC2=O)c2ccccc21 [3-(4-chlorophenyl)-4-(1-methyl-1H-indol-3-yl)-2,5-dihydro-1H-pyrrole-2,5-dione]
IC50 [1]: > 100 µM

Cn1cc(C2=C(c3ccc(S(C)(=O)=O)cc3)C(=O)NC2=O)c2ccccc21 [3-(4-methanesulfonylphenyl)-4-(1-methyl-1H-indol-3-yl)-2,5-dihydro-1H-pyrrole-2,5-dione]
IC50 [1]: > 100 µM

O=C1NC(=O)[C@@H](c2c[nH]c3ccccc23)[C@@H]1c1c[nH]c2ccccc12 [(3R,4R)-3,4-bis(1H-indol-3-yl)pyrrolidine-2,5-dione]
IC50 ([1]; pH 7.5, 30 °C): > 100 µM

O=C1NC(=O)[C@@H](c2c[nH]c3ccccc23)[C@H]1c1c[nH]c2ccccc12 [(3R,4S)-3,4-bis(1H-indol-3-yl)pyrrolidine-2,5-dione]
IC50 ([1]; pH 7.5, 30 °C): > 100 µM
